From patent US11178868B2, “Alkynyl-substituted 3-phenylpyrrolidine-2,4-diones and use thereof as herbicides” (Bayer CropScience Aktiengesellschaft, priority 2015, dated 2021)

Tests used:
Assay type in all cases: in vivo
Lolium multiflorum [1] = experiment: Pre-emergence herbicidal effect; conditions: scored visually after 3 weeks
Source text: (§1) Seeds of monocotyledonous and dicotyledonous weed plants and crop plants are laid out in wood-fibre pots in sandy loam and covered with soil. The compounds according to the invention formulated in the form of wettable powders (WP) or as emulsion concentrates (EC) are then applied as aqueous suspension or emulsion at a water application rate of 600 to 800 I/ha (converted) with the addition of 0.2% wetting agent to the surface of the covering soil. After the treatment, the pots are placed in a greenhouse and kept under good growth conditions for the trial plants. The damage to the test plants is scored visually after a test period of 3 weeks by comparison with untreated controls (herbicidal activity in percent (%): 100% activity=the plants have died, 0% activity=like control plants).

Alopecurus myosuroides [2] = experiment: Pre-emergence herbicidal effect; conditions: scored visually after 3 weeks
Source text: as §1

Setaria viridis [3] = experiment: Pre-emergence herbicidal effect; conditions: scored visually after 3 weeks
Source text: as §1

Avena fatua [4] = experiment: Pre-emergence herbicidal effect; conditions: scored visually after 3 weeks
Source text: as §1

Echinochloa crus-galli [5] = experiment: Pre-emergence herbicidal effect; conditions: scored visually after 3 weeks
Source text: as §1

Lolium multiflorum [6] = experiment: Post-emergence herbicidal effect; conditions: assessed visually after about 3 weeks
Description: (§2) Seeds of monocotyledonous and dicotyledonous weed and crop plants are laid out in sandy loam in wood-fibre pots, covered with soil and cultivated in a greenhouse under good growth conditions. 2 to 3 weeks after sowing, the test plants are treated at the one-leaf stage. The compounds according to the invention, formulated in the form of wettable powders (WP) or as emulsion concentrates (EC), are then sprayed as aqueous suspension or emulsion at a water application rate of 600 to 800 I/ha (converted) with the addition of 0.2% of wetting agent onto the green parts of the plants. After the test plants have been left to stand in the greenhouse under optimal growth conditions for about 3 weeks, the action of the preparations is assessed visually in comparison to untreated controls (herbicidal action in percent (%): 100% activity=the plants have died, 0% activity=like control plants).

Alopecurus myosuroides [7] = experiment: Post-emergence herbicidal effect; conditions: assessed visually after about 3 weeks
Description: as §2

Setaria viridis [8] = experiment: Post-emergence herbicidal effect; conditions: assessed visually after about 3 weeks
Description: as §2

Avena fatua [9] = experiment: Post-emergence herbicidal effect; conditions: assessed visually after about 3 weeks
Description: as §2

Echinochloa crus-galli [10] = experiment: Post-emergence herbicidal effect; conditions: assessed visually after about 3 weeks
Description: as §2

Amaranthus retroflexus = experiment: Post-emergence herbicidal effect; conditions: 80 g a.i./ha, assessed visually after about 3 weeks
Description: as §2

SMILES	Herbicidal effect against [%] LOLMU (Lolium multiflorum [1]; 80 g a.i./ha) [%]	Herbicidal effect against [%] LOLMU (Lolium multiflorum [1]; 320 g a.i./ha) [%]	Herbicidal effect against [%] ALOMY (Alopecurus myosuroides [2]; 80 g a.i./ha) [%]	Herbicidal effect against [%] ALOMY (Alopecurus myosuroides [2]; 320 g a.i./ha) [%]	Herbicidal effect against [%] SETVI (Setaria viridis [3]; 80 g a.i./ha) [%]	Herbicidal effect against [%] SETVI (Setaria viridis [3]; 320 g a.i./ha) [%]	Herbicidal effect against [%] AVEFA (Avena fatua [4]; 320 g a.i./ha) [%]	Herbicidal effect against [%] ECHCG (Echinochloa crus-galli [5]; 80 g a.i./ha) [%]	Herbicidal effect against [%] ECHCG (Echinochloa crus-galli [5]; 320 g a.i./ha) [%]	Herbicidal effect against [%] LOLMU (Lolium multiflorum [6]; 20 g a.i./ha) [%]	Herbicidal effect against [%] LOLMU (Lolium multiflorum [6]; 80 g a.i./ha) [%]	Herbicidal effect against [%] ALOMY (Alopecurus myosuroides [7]; 20 g a.i./ha) [%]	Herbicidal effect against [%] ALOMY (Alopecurus myosuroides [7]; 80 g a.i./ha) [%]	Herbicidal effect against [%] SETVI (Setaria viridis [8]; 20 g a.i./ha) [%]	Herbicidal effect against [%] SETVI (Setaria viridis [8]; 80 g a.i./ha) [%]	Herbicidal effect against [%] AVEFA (Avena fatua [9]; 20 g a.i./ha) [%]	Herbicidal effect against [%] AVEFA (Avena fatua [9]; 80 g a.i./ha) [%]	Herbicidal effect against [%] ECHCG (Echinochloa crus-galli [10]; 20 g a.i./ha) [%]	Herbicidal effect against [%] ECHCG (Echinochloa crus-galli [10]; 80 g a.i./ha) [%]	Herbicidal effect against [%] AVEFA (Avena fatua [4]; 80 g a.i./ha) [%]	other results
CC#Cc1ccc(C2=C(O)C3(CCCC(OCCOC)C3)NC2=O)c(CC)c1 (stereo not drawn) [Example D7]	100	100	100	100	100	100	100	100	100	100	100	100	100	100	100	100	100	100	100	–	–
CC#Cc1cc(CC)c(C2=C(O)C3(CCCC(OCCOC)C3)NC2=O)c(CC)c1 (stereo not drawn) [Example D5]	100	100	100	100	100	100	100	100	100	100	100	100	100	100	100	100	100	100	100	100	–
CC#Cc1cc(C)c(C2=C(O)C3(CCCC(OCCC)C3)NC2=O)c(C)c1 (stereo not drawn) [Example D3, 3-[2,6-Dimethyl-4-(prop-1-yn-1-yl)phenyl]-4-hydroxy-7-propoxy-1-azaspiro[4.5]dec-3-en-2-one]	100	100	100	100	100	100	100	100	100	80	100	–	–	80	100	–	90	100	100	80	Herbicidal effect against [%] AMARE (Amaranthus retroflexus): 90%
CC#Cc1cc(CC)c(C2=C(OC(=O)OCC)C3(CCCC(OCC)C3)NC2=O)c(CC)c1 (single isomer, unassigned) [Example P2]	100	100	100	100	100	100	100	100	100	–	–	–	–	–	–	–	–	–	80	100	–
CC#Cc1cc(CC)c(C2=C(OC(=O)C(C)C)C3(CCCC(OCCOC)C3)NC2=O)c(CC)c1 (stereo not drawn) [Example P12]	100	100	100	100	100	100	100	100	100	100	100	100	100	100	100	100	100	100	100	100	–
CC#Cc1cc(CC)c(C2=C(O)C3(CCCC(OCC)C3)NC2=O)c(CC)c1 (stereo not drawn) [Example D1]	100	100	100	100	100	100	100	100	100	–	90	80	100	90	100	–	–	100	100	80	–
C#Cc1cc(CC)c(C2=C(O)C3(CCCC(OCCOC)C3)NC2=O)c(CC)c1 (stereo not drawn) [Example D10]	–	–	90	100	100	100	100	100	100	–	–	90	90	–	–	80	90	90	90	90	–
CC#Cc1cc(C)c(C2=C(O)C3(CCCC(OCC)C3)NC2=O)c(C)c1 (stereo not drawn) [Example D2]	100	100	100	100	100	100	100	100	100	–	100	–	90	–	90	–	–	90	100	80	–
CC#Cc1cc(C)c(C2=C(OC(=O)OC(C)C)C3(CCCC(OCCOC)C3)NC2=O)c(C)c1 (stereo not drawn) [Example P14]	100	100	100	100	100	100	100	100	100	100	100	100	100	90	100	90	90	100	100	100	–
C#Cc1cc(C)c(C2=C(OC(=O)C(C)C)C3(CCCC(OCCCC)C3)NC2=O)c(C)c1 (stereo not drawn) [Example P6]	–	100	–	80	–	100	–	–	90	–	–	–	–	–	–	–	–	–	–	–	–
C#Cc1cc(C)c(C2=C(OC(=O)OCC)C3(CCCC(OCCCC)C3)NC2=O)c(C)c1 (stereo not drawn) [Example P5]	90	100	80	100	90	100	80	90	100	–	–	–	–	–	–	–	–	–	–	–	–
CC#Cc1cc(CC)c(C2=C(OC(=O)C(C)C)C3(CCCC(OCC)C3)NC2=O)c(CC)c1 (stereo not drawn) [Example P3]	100	100	90	100	100	100	80	100	100	–	–	–	–	–	–	–	–	–	90	–	–
